{
  "source": "paper PMC9051980",
  "about": "(Saudi Pharmaceutical Journal : SPJ, 2022)",
  "key": {"plasma CORT": {"system": "plasma CORT", "assay": "Plasma CORT level", "format": "in vivo, C57 mice", "conditions": "Day 19, compared with Healthy group"}, "PTSD mice [1]": {"system": "PTSD mice", "assay": "Freezing response test in fear-conditioning box", "format": "in vivo, C57 mice"}, "[2]": {"system": "amygdala dopamine transporter (DAT)", "assay": "Immunohistochemistry of amygdala DAT", "format": "in vivo, C57 mice", "conditions": "Day 19, compared with Healthy group"}, "PTSD mice [3]": {"system": "PTSD mice", "assay": "Open field test", "format": "in vivo, C57 mice"}, "Nasal perfusion method": {"assay": "Nasal perfusion method", "format": "in vivo, C57 mouse", "conditions": "at 60 min; 20 mL artificial nasal solution, 1 mg/mL, total dose 20 mg"}, "In-vitro drug release": {"assay": "In-vitro drug release", "format": "physicochemical", "conditions": "34 °C, 200 rpm, artificial nasal fluid"}, "[4]": {"assay": "In-vivo tissue distribution evaluation", "conditions": "both, C57BL/6N, mouse, po, 0.4 mg/mouse"}, "[5]": {"assay": "Plasma pharmacokinetic evaluation", "format": "in vivo, C57BL/6N mice", "conditions": "both, C57BL/6N, mouse, po, 0.4 mg/mouse"}, "[6]": {"system": "cilia of the maxillary mucosa of toads", "assay": "Mucosal irritation", "design": "species or system toad"}, "[7]": {"conditions": "Day 17, five days after drug withdrawal, compared with Healthy group"}, "[8]": {"conditions": "Day 17, five days after drug withdrawal, compared with Model group"}, "[9]": {"conditions": "Day 12, compared with Model group"}},
  "data": [
    {"smiles": "CN[C@H]1CC[C@@H](c2ccc(Cl)c(Cl)c2)c2ccccc21", "note": "[Sertraline]", "values": [
      {"measurement": "Plasma CORT level", "setting": "plasma CORT", "value": "decreased"},
      {"measurement": "Freezing time", "setting": "PTSD mice [1]; Day 11, compared with Healthy group", "value": "longer freezing time"},
      {"measurement": "Total active distances", "setting": "PTSD mice [1]; Day 11, fear-conditioning box, compared with Healthy group", "value": "shorter total active distances"},
      {"measurement": "Total active distances", "setting": "PTSD mice [1]; Day 11, fear-conditioning box, compared with Model group", "value": "longer total active distances"},
      {"measurement": "Freezing time", "setting": "PTSD mice [1]; [7]", "value": "longer freezing time"},
      {"measurement": "Total active distances", "setting": "PTSD mice [1]; [7]", "value": "shorter total active distances"},
      {"measurement": "Freezing time", "setting": "PTSD mice [1]; [8]", "value": "shorter freezing time"},
      {"measurement": "Total active distances", "setting": "PTSD mice [1]; [8]", "value": "longer total active distances"},
      {"measurement": "DAT expression in amygdala (IOD)", "setting": "[2]", "value": "significantly increased"},
      {"measurement": "Open field test indicators", "setting": "PTSD mice [3]; Day 12, compared with Healthy group", "value": "fewer crossing times"},
      {"measurement": "Active distances in the center of thigmotaxis area", "setting": "PTSD mice [3]; [9]", "value": "more active distances in the center of thigmotaxis area"},
      {"measurement": "Crossings in the center of thigmotaxis area", "setting": "PTSD mice [3]; [9]", "value": "more crossings in the center of thigmotaxis area"},
      {"measurement": "Total active distances", "setting": "PTSD mice [3]; Day 12, open field, compared with Model group", "value": "more total active distances"},
      {"measurement": "Crossings and active distances in the center of thigmotaxis area", "setting": "PTSD mice [3]; Day 18, after drug withdrawal, compared with Healthy group", "value": "fewer crossings and active distances in the center of thigmotaxis area"},
      {"measurement": "Crossing of the center of thigmotaxis area", "setting": "PTSD mice [3]; Day 18, after drug withdrawal, compared with Model group", "value": "more frequently"},
      {"measurement": "Total active distances", "setting": "PTSD mice [3]; Day 18, open field, after drug withdrawal, compared with Healthy group", "value": "fewer total active distances"},
      {"measurement": "Total active distances", "setting": "PTSD mice [3]; Day 18, open field, after drug withdrawal, compared with Model group", "value": "increased"}
    ]},
    {"smiles": "NC(=O)C[S@@+]([O-])C(c1ccccc1)c1ccccc1", "note": "[Armodafinil]", "values": [
      {"measurement": "Mucosal absorptive amount of armodafinil", "setting": "Nasal perfusion method", "value": 2.50, "unit": "mg"},
      {"measurement": "Time at which the release was complete", "setting": "In-vitro drug release", "value": 2, "unit": "h"},
      {"measurement": "Released armodafinil percentage when release was complete", "setting": "In-vitro drug release; 20 mg/mL armodafinil", "value": "18.12 ± 1.03", "unit": "%"},
      {"measurement": "AUC(0-t)", "setting": "[4]; brain", "value": 1090, "unit": "ng·h/mL"},
      {"measurement": "Cmax", "setting": "[4]; brain", "value": "259 ± 96", "unit": "ng/mL"},
      {"measurement": "Tmax", "setting": "[4]; brain", "value": 30, "unit": "min"},
      {"measurement": "AUC(0-t)", "setting": "[4]; liver", "value": 2380, "unit": "ng·h/mL"},
      {"measurement": "Cmax", "setting": "[4]; liver", "value": "1150 ± 199", "unit": "ng/mL"},
      {"measurement": "Tmax", "setting": "[4]; liver", "value": 30, "unit": "min"},
      {"measurement": "AUC(0-t)", "setting": "[5]", "value": "9900 ± 5500", "unit": "ng·h/mL"},
      {"measurement": "Cmax", "setting": "[5]", "value": "3600 ± 2250", "unit": "ng/mL"},
      {"measurement": "Tmax", "setting": "[5]", "value": 15, "unit": "min"}
    ]},
    {"smiles": "C[C@H](CCC(=O)O)[C@H]1CC[C@H]2[C@@H]3CC[C@@H]4C[C@H](O)CC[C@]4(C)[C@H]3C[C@H](O)[C@]12C", "note": "[Sodium Deoxycholate]", "values": [
      {"measurement": "PVD (persistent vibration duration of cilia)", "setting": "[6]; 100 μL on toad upper-jaw mucosa, armodafinil 20 mg/mL, sodium deoxycholate 1%", "value": "136.67 ± 26.95", "unit": "min"},
      {"measurement": "PPV (percentage of persistent vibration)", "setting": "[6]; PVD compared with that of the saline group", "value": 20.69, "unit": "%"},
      {"measurement": "Ciliary structure / extent of damage of cilia under microscope", "setting": "[6]; maxillary mucosa of toads", "value": "obviously prostrate or even exfoliated"}
    ]}
  ]
}
